Experimental data: US5049550A, “Diadenosine 5', 5'"-p^1, p^4,-tetraphosphate analogs as antithrombotic agents” (Worcester Foundation for Experimental Biology, priority 1988, dated 1991)
Entries after “also recorded” stand apart in the source; their conditions may differ.

Key:
[1] = tested on: collagen-induced aggregation of platelets; test: Collagen-induced aggregation of platelets recovered from AP4 A-infused rabbits; assay type: in vivo, rabbit; conditions: 50 mg per kg over 2 hours; collagen 200 ug/ml (FIG. 4)
Description: (§1) After preliminary trials, a standard AP4 A infusion protocol was established as follows: A dose of AP4 A at 50 mg/kg was reconstituted in 10 ml of normal saline and infused by pump at a uniform rate over two hours. Control rabbits received 10 ml of saline alone. The intracarotid cannula was inserted, and the re-establishment of blood flow timed at 15 minutes into the infusion. Upon the completion of infusion at 2 hours, the intracarotid tubing was removed, and its contents flushed out into a petri dish. The presence of a clot or of liquid blood contents was noted.
(§2) Rabbit carotid arterial blood was collected in 3.8% sodium citrate (9 volumes blood to 1 volume citrate). Platelet rich plasma (PRP) and platelet poor plasma (PPP) were prepared by centrifugation at 150 g and 1,000 g for 10 minutes respectively. Aggregation studies were performed in a Chrono-Log (Havertown, Pa.) aggregometer with ADP or collagen as aggregating agents. ADP (Sigma Chemical Co.) was used in a final concentration of 2×10^-5 M. Calf skin collagen (Sigma Chemical Co.) was used in a final concentration of 200 ug/ml.

[2] = tested on: Intracarotid Artery Thrombosis; test: Intracarotid cannula arterial thrombosis model in rabbits; assay type: in vivo, rabbit
Description: Gurewich, V. and Lipinski, B. Thrombosis Research, 9:101 (1976); Louie, S. and Gurewich, V. Thrombosis Research, 30:323-335 (1983).
Male, New Zealand white rabbits, weighing 2-2.5 kg., were anesthetized with ketamine hydrochloride (100 mg/kg intramuscularly). AP4 A (Boehringer (100 Mannheim Biochemicals, Indianapolis, Ind.), or saline control was infused via a marginal ear vein. A segment of the left common carotid artery was isolated by vascular clamps. A 1 cm. length of polyethylene tubing (PE-90, Clay Adams, Parsippany, N.Y.) was inserted, secured by silk ligatures, and the blood flow re-established by removing the clamps. Blood was sampled from the right carotid artery for assays of AP4 A and ATP, and for platelet aggregation studies.
as §1
Twenty-five rabbits each were assigned to the experimental group that received AP4 A (50 mg/kg), and the control group that received normal saline alone. The incidence of clot formation in the intracarotid cannula in the two groups was compared by the Chi-Square test.
Initially, twelve rabbits received a constant infusion of E10 over a 2 hour period at a dosage of 100 mg in 10 ml. These intravenous infusions were performed as described above for AP4 A.
In addition, 30 mg of E10 in 3 ml saline was administered as a single injection over a one minute time span at the beginning of the cannulation period.

[3] = tested on: rabbit platelet aggregation by collagen; test: Collagen-induced aggregation of rabbit platelets; assay type: cell-based
Description: as §2
(§3) The effect of AP4 A on rabbit platelet aggregation by ADP and collagen was tested. […] The anti-aggregatory effect of AP4 A was detected at a concentration of 2×10^-4 M (tenfold that of ADP) and increased in a dose-response pattern with increasing concentrations (FIG. 1).

[4] = tested on: aggregation of platelets induced by ADP; test: ADP-induced aggregation of platelets recovered from AP4 A-infused rabbits; assay type: in vivo, rabbit
Description: as §1, §2

[5] = plasma; cited from earlier work
[6] = tested on: ADP induced platelet aggregation; conditions: in vitro; even when aggregation has progressed to 60% completion; cited from earlier work
[7] = tested on: rabbit platelet aggregation by ADP; test: ADP-induced aggregation of rabbit platelets; assay type: cell-based
Description: as §2, §3

[8] = tested on: ADP-induced platelet aggregation; test: Kinetics of ADP-induced platelet aggregation (double-reciprocal plot); assay type: cell-based; conditions: FIG. 6
Description: Changes in light transmission reflecting the velocity of ADP-induced platelet aggregability was determined using a platelet aggregometer. Born, G.V.P., Nature 184:927-929 (1962). […] The Y points on the X-intercept are altered by factors [formula] where I is the concentration of inhibitor, and Ki is a characteristic constant. Points on the X-intercept are given by the expression [formula] intercept when [I]=0. When [I] is known, the equation can be solved for Ki.

[9] = AP4 A 50 mg/kg infused over 2 hours, 25 rabbits

## Nc1ncnc2c1ncn2[C@@H]1O[C@H](COP(=O)(O)OP(=O)(O)OP(=O)(O)OP(=O)(O)OC[C@H]2O[C@@H](n3cnc4c(N)ncnc43)[C@H](O)[C@@H]2O)[C@@H](O)[C@H]1O [AP4 A, diadenosine 5',5'"-p^1,p^4 -tetraphosphate]
[1]
  effect on collagen-induced aggregation after AP4 A infusion: little effect
[2]; [9]
  % CLOTS (incidence of thrombosis): 56%
  Clot Absent (rabbits): 11
  Clot Present (rabbits): 14
[2]; AP4 A 50 mg/kg over 2 hours
  difference in dimension and weight of clots versus controls: no significant difference
[3]; added after aggregation, collagen 200 ug/ml (FIG. 2)
  effect on preformed aggregates caused by collagen: no effect
[3]; added prior to induction, collagen 200 ug/ml (FIG. 3B)
  effect on collagen-induced aggregation: inhibiting slightly
[3]; same dose that almost completely inhibits ADP-induced aggregation
  effect on collagen-induced platelet aggregation: little or no effect
[4]; 50 mg per kg over 2 hours, ADP 2×10^-5 M (FIG. 4)
  aggregation of platelets induced by ADP after AP4 A infusion: diminished response to ADP-induced aggregation; also recorded: markedly blunted
[4]; rabbit, in vivo
  inhibition of ADP-induced platelet aggregation on administration to a mammal: markedly inhibit ADP-induced platelet aggregation
[5]
  degradation products: degraded to AMP and ATP
[6]
  effect on ADP induced platelet aggregation: competitively inhibits ADP induced platelet aggregation, causing an immediate dispersion of aggregated platelets
[7]; Oryctolagus cuniculus, Platelet, ADP 2×10^-5 M (tenfold that of ADP), read-out: concentration at which the anti-aggregatory effect was detected
  minimal effective concentration: 200 µM
[7]; added during aggregation, ADP 2×10^-5 M
  effect of addition during ADP aggregation: blunted the secondary wave response to ADP and caused the dispersion of aggregated platelets
[7]; same dose as tested with collagen
  inhibition of ADP-induced aggregation: almost complete inhibition
[8]; competitive inhibition of ADP-induced aggregation
  Ki: 17.1 µM
[8]; double reciprocal plot
  type / relative strength of inhibition: competitive inhibition
